Laboratory results reported in US9061006B2, “Compositions and methods for diagnosing and treating phenylketonuria (PKU)” (Ramot at Tel-Aviv University Ltd., priority 2011, dated 2015).

How the values were obtained:
Type in all cases: cell-based
[1] = tested on: PC12 cells; assay: MTT cell viability assay, PC12 cell line; settings: negative control amino acid, increasing amount
Experimental: (§1) Cell cytotoxicity experiments—CHO cells (2×10^5 cells/mL) were cultured in 96-well micro plates (100 μL/well) and incubated overnight at 37° C. 100 μL of phenylalanine was added to each well dissolved in Dulbecco's Modified Eagle Medium (DMEM) (Beit Haemek, Israel) at various concentrations. Each experiment was repeated 3 times. Following incubation for 6 hours at 37° C., cell viability was evaluated using the 3-(4,5-dimethylthiazolyl-2)-2,5-diphenyltetrazolium bromide (MTT) assay. Briefly, 20 μL of 5 mg/mL MTT dissolved in PBS was added to each well. After 4 hours incubation at 37° C., 100 μL of extraction buffer [20% SDS dissolved in a solution of 50% dimethylformamide and 50% DDW (pH 4.7)] was added to each well, and the plates were incubated again overnight at 37° C. Finally, color intensity was measured using an ELISA reader at 570 nm.
(§2) The present inventors next examined whether, like many amyloid structures, phenylalanine assemblies have a cytotoxic effect. This was examined in a physiological range of concentration, similar to that detected in untreated PKU patients. We performed in vitro cellular viability experiments. To this end, elevated concentrations of phenylalanine ranging from 0.1 μM to 15 mM were added to […] cultured PC12 cells. […] In the presence of 1.8 mM phenylalanine, PC12 cell viability was decreased to approximately 80%. […] In the presence of 6 mM phenylalanine, CHO cell viability was decreased to 84%. Moreover, the viability of the cells in the presence of phenylalanine at concentration of 12 mM was lower than 40% (FIG. 2A). The present assay is performed at much shorter time scales than those of disease progression and this may account for the slightly elevated concentrations than those typically found at PKU patients. It is also possible that such high concentrations of phenylalanine occur pathologically in PKU patients due to transient local high concentration in the brain. […] The present inventors further assessed the influence of the phenylalanine fibrils on the CHO cells using scanning electron microscope.

[2] = MTT cell viability assay, CHO cell line; settings: Chinese hamster, CHO cells
Experimental: as §1

[3] = MTT cell viability assay, PC12 cell line; settings: rat, PC12 cells
Experimental: as §1, §2

[4] = tested on: CHO cells; assay: Scanning electron microscopy imaging of CHO cells; settings: incubation with phenylalanine fibrils 6 hour, SEM
Experimental: Scanning electron microscopy imaging of CHO cells—CHO cell were cultured on glass cover slips located in 24-well micro plates, then incubated with various concentration of phenylalanine fibrils for 6 hour at 37° C., as described in the cell cytotoxicity experiments section. The cell were fixated on the glass cover slip with 2.5% glutaraldehyde, then dehydrated and coated with gold. Scanning electron microscopy images were made using a JSM JEOL 840A SEM operating at 5 kV.

[5] = Immuno precipitation and cell cytotoxicity experiments (MTT); settings: Chinese hamster, prior to IP, CHO cells
Experimental: as §1
Immuno precipitation and cell cytotoxicity experiments—Phenylalanine solution at concentration of 7.5, 1.87, 0.46, 0.11 were either incubated with CHO cell or immuno-precipitate and then the solutions, without the fibrils, were incubated with CHO cell according to cell cytotoxicity experiments detailed above. Samples were immuno-precipitated with anti-phenylalanine fibrils antibodies (1:10) over night at 4° C. (previously purified on protein A column, in PBS+2% BSA).

C[C@H](N)C(=O)O [Alanine, reference compound]
toxic effect (cytotoxicity) [1]: did not demonstrate a toxic effect

N[C@@H](Cc1ccccc1)C(=O)O [phenylalanine]
viability at 6 h, 6 mM ([2]; 6 mM phenylalanine): 84%
viability at 6 h, 12 mM ([2]; 12 mM phenylalanine): < 40%
viability at 1.8 mM ([3]; 1.8 mM phenylalanine): ~80%
viability at 7.5 mM ([3]; 7.5 mM phenylalanine): ~65%
CHO cell morphology [4]: smaller and rounded
CHO cell density ([4]; compared to untreated cells): very low density
viability at 6 h, 1.87 mM ([5]; 1.87 mM phenylalanine assemblies): 56%
viability at 6 h, 7.5 mM ([5]; 7.5 mM phenylalanine assemblies): 44%
